The record followed here is patent publication US6723235B2, “Apparatus for screening compound libraries” (priority 1998, dated 2004).

SMILES strings stand for the structures.

The target in the assay is cholera toxin B subunit (Vibrio cholerae serotype O1, UniProt P01556). It is filed as binding.
cholera toxin B subunit, sequence (P01556 22-124 limits assumed): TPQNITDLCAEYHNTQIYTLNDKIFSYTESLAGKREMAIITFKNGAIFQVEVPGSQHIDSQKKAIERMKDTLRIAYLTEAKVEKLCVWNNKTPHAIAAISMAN

Turning to `COC(=O)CCCCCCCCOC1OC(COC2OC(CO)C(O)C(O)C2O)C(O)C(OC2OC(CO)C(O)C(O)C2O)C1O` (centres unmarked) [compound 3, αMan(1→3)[αMan(1→6)]βMan-OGr], the “break through relative to void volume” value is “broke through in the void volume”.

As for `CC(=O)N[C@H]1[C@H](O[C@@H]2[C@H](O[C@]3(C(=O)O)C[C@H](O)[C@@H](NC(C)=O)[C@H]([C@H](O)[C@H](O)CO)O3)[C@@H](O)[C@H](O[C@H]3[C@H](O)[C@@H](O)[C@H](O)O[C@@H]3CO)O[C@@H]2CO)O[C@H](CO)[C@H](O)[C@@H]1O[C@@H]1O[C@H](CO)[C@H](O)[C@H](O)[C@H]1O` [compound 7, GM1 oligosaccharide], the break through volume (pH 6.9) is about 300 µL.
